Experiments:
human SHMT2 = human SHMT2 (Homo sapiens (Human), UniProt P34897); experiment: SHMT2 in vitro enzymatic assay (coupled with MTHFD2, NADH absorption at 340 nm); type: biochemical; settings: SHMT2 IC50 (μM), Table 2
Description: Inhibition of human SHMT by compounds in this disclosure is evaluated, for example, in their racemic forms in an in vitro assay.
For the SHMT1 and SHMT2 in vitro enzymatic assays, the rate of 5,10-methylene tetrahydrofolate formation catalyzed by SHMT1/2 was indirectly evaluated by coupling with excess MTHFD2, which converts NAD+ to NADH allowing for reaction monitoring by absorption at 340 nm. […] Inhibition of initial reaction velocity was determined by adding various inhibitors at different concentrations and monitored as described. IC50 may be calculated based on this assay.

HCT116 cells [1] = experiment: Cell growth assay (resazurin), HCT116 wild-type; type: cell-based, human
Description: (§1) Inhibitors of SHMT were evaluated in various cancer cell lines, in the presence and absence of mutations in mitochondrial folate pathway enzymes.
(§2) The described cell lines for Examples 8 and 9 are cultured in 96-well plates in Dulbecco's modified eagle media (DMEM) without pyruvate (CELLGRO) with 10% dialysed fetal bovine serum (Invitrogen) in 5% CO2 at 37° C. Approximately 2,500 cells are plated in each well in 90 uL of media. After 24 hours cells are treated with various concentrations of inhibitor (time=0 hours), with or without formate. Growth was assessed at multiple time points (time=0, 24, 48, 72 hours) through measurement of fluorescence at 595 nm (excitation at 535 nm) on a BioTek micro titer plate reader after incubation with resazurin (0.01 mg/mL for 1.5 hours). IC50 curves are generated from percent inhibition of growth at 72 hours.

HCT116 cells [2] = experiment: Formate rescue assay in cell growth assay; type: cell-based, human; settings: for rescue of effects on cell growth by addition of formate: Table 5 cells
Description: Application of formate is shown to rescue the anti-growth effect in certain human cells treated with SHMT inhibitors in a cell growth assay.
as §2

[3] = tested on: SHMT2 knock-out HCT116 cells; experiment: Cell growth assay, SHMT2 deletion (knock-out) HCT-116 cells; type: cell-based, human; settings: FIG. 3B
Description: as §1, §2
Clonal deletion cell lines of SHMT1, SHMT2, and SHMT1/2 were generated from the human colorectal carcinoma cell line HCT-116. Paired Cas9 nickase (Cas9n) containing constructs that encoded single-guide RNA sequences targeting SHMT1 or 2 were transiently transfected into cells, and mutant colonies from single clones were picked as described in Ducker et al., (2016) Reversal of Cytosolic One-Carbon Flux Compensates for Loss of the Mitochondrial Folate Pathway, Cell Metab 23, 1140-1153. […]

Su-DHL-2 cells = experiment: Cellular growth assay (cell count), Su-DHL-2 DLBCL line; type: cell-based, human; settings: Su-DHL-2, 5 μM inhibitor + 1 mM formate
Description: (§3) Jurkat, REH, Farage, Daudi, Su-DHL2, Su-DHL-4, Su-DHL-6 cells were purchased from ATCC. Cells were subcultured in RPMI supplemented with 10% FBS. For growth assays, cells were seeded at 2×10^5/mL in 5 mL growth media in 12.5 cm flasks. Media was supplemented with sodium formate (1 mM), additional glycine (100 mg/L) and an SHMTi (5 uM). Cells were sampled daily, and counted using trypan blue staining and light microscopy.

Jurkat cells = experiment: Cellular growth assay, Jurkat T-cell leukemia line; type: cell-based, human; settings: 5 μM inhibitor + 1 mM sodium formate
Description: as §3

8988T cells = experiment: Growth of pancreatic cancer cell line 8988T; type: cell-based, human; settings: FIG. 9E
Su-DHL4 cells [4] = experiment: Apoptosis by flow cytometry (Annexin V surface staining); type: cell-based, human
Description: Apoptosis was enhanced by co-treatment with formate. In contrast, as expected, formate rescued Jurkat E6-1 leukemia cells from apoptosis (FIG. 11C). Without wishing to be bound by theory, it is hypothesized that the failure of formate to rescue growth in the DLBCL cell lines is due to a requirement for both glycine and 1C units made by SHMT in these cells. When glycine is limiting, formate can enhance the cytotoxicity of SHMT inhibition. […] Mechanistically, by supplying 5,10-methylene-THF, formate may drives residual SHMT enzymatic function in the […] direction.
In contrast, cell growth is further decreased in Su-DHL4 cells by addition of formate. This can be further exacerbated by removal of glycine from the media. […] Using flow cytometry, apoptosis of Su-DHL4 cells were studied with AnnexinV surface staining (FIGS. 12D and 12E).

Su-DHL4 cells [5] = experiment: Cellular growth assay, Su-DHL4 DLBCL line; type: cell-based, human; settings: SU-DHL4, RPMI, FIG. 12C
Description: as §3

Sequence of human SHMT2 (P34897 30-504): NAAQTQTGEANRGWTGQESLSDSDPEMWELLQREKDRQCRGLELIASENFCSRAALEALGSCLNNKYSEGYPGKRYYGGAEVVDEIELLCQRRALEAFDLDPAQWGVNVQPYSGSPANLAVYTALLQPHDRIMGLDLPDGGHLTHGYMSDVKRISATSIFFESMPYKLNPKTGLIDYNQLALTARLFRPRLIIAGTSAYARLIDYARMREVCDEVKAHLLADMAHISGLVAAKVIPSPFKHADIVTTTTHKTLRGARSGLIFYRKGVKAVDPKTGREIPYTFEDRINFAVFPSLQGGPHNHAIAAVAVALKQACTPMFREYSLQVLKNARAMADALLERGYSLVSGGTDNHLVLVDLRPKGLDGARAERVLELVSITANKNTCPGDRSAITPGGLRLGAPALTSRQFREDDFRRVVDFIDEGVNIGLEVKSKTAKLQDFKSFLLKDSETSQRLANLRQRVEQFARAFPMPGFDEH

`Cc1n[nH]c2c1C(c1cc(C#CCCC(=O)O)cc(C(F)(F)F)c1)(C(C)C)C(C#N)=C(N)O2` (racemic) [1 (enantiomeric mixture)] was tested. Which IC50 (human SHMT2) did it give?
Its IC50 is 0.00065 µM.

Which IC50 (HCT116 cells [1]; Table 2, read-out: HCT Cell IC50) does the source give for `Cc1n[nH]c2c1C(c1cc(C#CCCC(=O)O)cc(C(F)(F)F)c1)(C(C)C)C(C#N)=C(N)O2` (stereo not drawn) [1 (enatiomerically active peak)] here?
Its IC50 is 1360 nM.

And the “% formate rescue” value (HCT116 cells [2]; HCT cells, Table 2)?
The value was 94.96%.

What about the IC50 (human SHMT2) of the same compound?
The IC50 was 0.00079 µM.

`Cc1n[nH]c2c1C(c1cc(C#CCCCO)cc(C(F)(F)F)c1)(C(C)C)C(C#N)=C(N)O2` (stereo not drawn) [Compound 61, 6-amino-4-(3-(5-hydroxypent-1-yn-1-yl)-5-(trifluoromethyl)phenyl)-4-isopropyl-3-methyl-1,4-dihydropyrano[2,3-c]pyrazole-5-carbonitrile] was tested. Which “growth of SHMT2 knock-out HCT116 cells versus native” value [3] did it give?
Its value is “increased potency”.

What about the “growth (proliferation) of HCT116 cells” value (HCT116 cells [1]; native HCT116, FIG. 3A) of the same compound?
The value was “inhibited growth”.

How did the “rescue of growth inhibition by formate” value (Su-DHL-2 cells) turn out when `Cc1n[nH]c2c1[C@@](c1cc(C(F)(F)F)cc(C(F)(F)F)c1)(C(C)C)C(C#N)=C(N)O2` [HK-16 (PK-2)] was run?
The value was “not rescued”.

What about the “rescue of growth inhibition by formate” value (Jurkat cells) of the same compound?
The value was “significantly rescued”.

`Cc1n[nH]c2c1C(c1cc(N3CCCC3)cc(C(F)(F)F)c1)(C(C)C)C(C#N)=C(N)O2` (stereo not drawn) [HK-X1] was tested. Which “rescue of effects on cell growth by addition of formate” value (HCT116 cells [2]) did it give?
The value was “rescued”.

What does the source list for `Cc1n[nH]c2c1C(c1cc(CO)cc(-c3ccccc3)c1)(C(C)C)C(C#N)=C(N)O2` (stereo not drawn) [HK-X2]?
concentration impairing cell growth (8988T cells): < 100 nM; apoptotic fraction of cells (Su-DHL4 cells [4]; Su-DHL4, inhibitor alone (control 2%)): 8%; apoptotic fraction of cells (Su-DHL4 cells [4]; Su-DHL4, inhibitor in the presence of formate): 15%; apoptosis by Annexin V surface staining (Su-DHL4 cells [4]; Su-DHL-4): induced apoptosis; rescue of effects on cell growth by addition of formate (HCT116 cells [2]): rescued; IC70 (Su-DHL4 cells [5]): 5000 nM

Source: patent publication US10934305B2, “SHMT inhibitors” (The Trustees of Princeton University, priority 2016, dated 2021)
